Measurements: US20240174693A1, “SOMATOSTATIN RECEPTOR SUBTYPE 4 (SSTR4) AGONISTS AND THEIR APPLICATIONS” (Humanwell Pharmaceutical US, priority 2022, published 2024)

Legend:
SD rats = assay: SD rat carrageenan acute inflammation model; format: in vivo; conditions: SD rat carrageenan
Description: Using an electronic caliper for accuracy, the thickness of the rat's footpad was measured. Rats were then restrained, and 100 μl of 1% carrageenan was subcutaneously injected into the right hind footpad to induce inflammation, thereby establishing an acute inflammation model using carrageenan. Each compound was administered in advance according to the respective dosing time points. The swelling of the rat's foot was measured at various time points: before modeling (0 h) and after modeling (2, 4, 7 h). A comparison was made between footpad swelling before and after modeling. […] The results of the carrageenan-induced acute inflammation model experiment are depicted in FIG. 1.

KM mice = assay: Acetic acid induced writhing test; format: in vivo; conditions: 30 mg/kg s.c.; for No. of writhing's: 0.6% acetic acid 15 min after dosing, 30-minute period; for Percentage of Inhibition / Significant compared to the model group: writhing
Description: Fifteen minutes after administration, a 0.6% acetic acid solution (5 mL/kg) was injected into the abdominal cavity. The mice were then placed in an observation box, and the number of writhing episodes was recorded within a 30-minute period. The assessment of pain intensity was based on the observation of the mice's writhing behavior.

SSTR4 = target: T1, SSTR4 (Homo sapiens, UniProt P31391); assay: FLIPR assay for agonists, HEK293/Gα15/SSTR4 cells; format: cell-based; conditions: read-out: SSTR4 Agonist Activity in FLIPR Assay EC50
T1 construct: host or cells: HEK293/Gα15/SSTR4
Description: The study was carried out at HD Biosciences (Shanghai, China) according to the following steps.
Step 1: Test compounds were diluted to a 400×stock solution in DMSO in a 384-well plate.
Step 2: 1 μL of the compound solution was transferred from Step 1 to 79 μL of assay buffer, creating a 5×working solution in the 384-well plate using the Bravo method.
Step 3: HEK293/Gα15/SSTR1-5 cells were cultured in DMEM medium (10% FBS).
Step 4: When cells reached 80% confluence, the cells were separated using 0.25% trypsin-EDTA.
Step 5: The cell density was measured and the cells diluted to 1×10^6/mL using DMEM (10% FBS).
Step 6: 30 μL of cells were dispensed into each well of a Matrigel-coated 384-well plate (Corning 3764#) using a multi-channel pipette (30,000 cells per well) and cultured for 20-24 hours at 37° C. and 5% CO2.
Step 7: 10 μL of dye was added to each well in the cell plate prepared in Step 6.
Step 8: The dye and cells were incubated in the dark at 37° C. and 5% CO2 for 1 hour.
Step 9: After 1 hour, the FLIPR program was loaded, the pipette tips placed cell plate and compound plate (from Step 2) into the machine, and the run button was pressed. The program added 10 μL to 40 μL to the cell plate. FLIPR was used to read the plate at room temperature according to the specified settings and the data was saved.

In vivo PK study = conditions: po, 3 mg/kg p.o.

T1 sequence (P31391 whole entry): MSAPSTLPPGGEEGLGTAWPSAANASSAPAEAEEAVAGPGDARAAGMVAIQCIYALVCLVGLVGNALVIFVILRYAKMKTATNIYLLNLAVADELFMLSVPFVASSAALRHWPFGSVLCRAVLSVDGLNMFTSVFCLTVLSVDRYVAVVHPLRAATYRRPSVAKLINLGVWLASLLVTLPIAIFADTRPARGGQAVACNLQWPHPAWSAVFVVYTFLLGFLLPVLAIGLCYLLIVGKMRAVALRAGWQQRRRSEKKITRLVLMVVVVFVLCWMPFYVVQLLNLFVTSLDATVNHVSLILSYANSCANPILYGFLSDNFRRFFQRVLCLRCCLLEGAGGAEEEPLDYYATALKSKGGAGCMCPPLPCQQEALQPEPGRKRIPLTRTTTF

SMILES	Changes in Foot Swelling Rate (Mean ± SEM) (SD rats; 0 h (before modeling))	Foot Swelling Degrees (Mean ± SEM) (SD rats; 0 h (before modeling))	Changes in Foot Swelling Rate (Mean ± SEM) (SD rats; 2 h after modeling)	Foot Swelling Degrees (Mean ± SEM) (SD rats; 2 h after modeling)	Changes in Foot Swelling Rate (Mean ± SEM) (SD rats; 4 h after modeling)	Foot Swelling Degrees (Mean ± SEM) (SD rats; 4 h after modeling)	Changes in Foot Swelling Rate (Mean ± SEM) (SD rats; 7 h after modeling)	Foot Swelling Degrees (Mean ± SEM) (SD rats; 7 h after modeling)	No. of writhing's (KM mice)	Percentage of Inhibition (KM mice)	Significant compared to the model group (KM mice)	further results
CC(=O)Oc1ccccc1C(=O)O [Aspirin]	0%	4.08 ± 0.10 mm	33.44 ± 4.56%	5.42 ± 0.11 mm	24.42 ± 6.86%	5.05 ± 0.21 mm	19.72 ± 3.24%	4.87 ± 0.07 mm	–	–	–	–
CC(C)(NC(=O)[C@@H]1[C@@H]2C[C@H]1CN(C(=N)N)C2)c1ncc2c(Cl)cccn12 [Compound 21, (1R,5S,6r)-3-carbamimidoyl-N-(2-(8-chloroimidazo[1,5-a]pyridin-3-yl)propan-2-yl)-3-azabicyclo[3.1.1]heptane-6-carboxamide]	–	–	–	–	–	–	–	–	9	71%	Yes	–
CC(C)C[C@H](CN)CC(=O)O [Pregabalin]	0%	4.06 ± 0.07 mm	41.54 ± 1.45%	5.74 ± 0.09 mm	35.68 ± 2.85%	5.49 ± 0.09 mm	37.64 ± 2.63%	5.58 ± 0.13 mm	–	–	–	–
CC(C)(NC(=O)[C@@H]1[C@@H]2CNC[C@H]1C2)c1ncc2c(Br)cccn12 [Compound 3, (1R,5S,6s)-N-(2-(8-bromoimidazo[1,5-a]pyridin-3-yl)propan-2-yl)-3-azabicyclo[3.1.1]heptane-6-carboxamide]	–	–	–	–	–	–	–	–	–	–	–	EC50 (SSTR4): > 1 µM
COc1ccc(-c2cccn3c(C(C)(C)NC(=O)[C@H]4[C@@H]5CNC[C@H]4C5)ncc23)cc1 [Compound 12, (1R,5S,6r)-N-(2-(8-(4-methoxyphenyl)imidazo[1,5-a]pyridin-3-yl)propan-2-yl)-3-azabicyclo[3.1.1]heptane-6-carboxamide]	–	–	–	–	–	–	–	–	10	54.16%	Yes	–
CC(C)(NC(=O)[C@@H]1[C@@H]2C[C@H]1CN(C(=N)N)C2)c1nc(C2CC2)c2ccccn12 [Compound 22, (1R,5S,6r)-3-carbamimidoyl-N-(2-(1-cyclopropylimidazo[1,5-a]pyridin-3-yl)propan-2-yl)-3-azabicyclo[3.1.1]heptane-6-carboxamide]	–	–	–	–	–	–	–	–	7 ± 2	82.45 ± 5.13%	Yes	AUC(0-t) (In vivo PK study): 1.3 ng·h/mL; Cmax (In vivo PK study): 5.56 ng/mL; MRT inf (In vivo PK study): 11.4 min; Tmax (In vivo PK study): 11.4 min
